31 compounds from patent publication US12023336B2, “Antiviral drug compounds and composition thereof” (priority 2018, dated 2024) can be followed below.

For data set [1], the system named is CEM-GFP cells. Kind of data set: MTT cell viability assay in CEM-GFP cells. In kind it is cell-based. The note with it: concentration at which cell viability was 50%. The protocol: (a-b) CEM-GFP cells were treated with different concentrations of MTX-HYD and MTX and cytotoxicity was determined by MTT cell viability assay. […] (c-d) CEM-GFP cells were infected with 0.5 MOI (Multiplicity of infection) of HIV-1NL4.3 virus in presence of MTX-HYD or MTX. 72-hours post infection supernatant was collected and virus production was determined by p24 antigen capture ELISA.
(§1) Cytotoxicity of MTX-HYD and MTX and their analogues was determined by MTT cell proliferation assay kit, (Roche, Germany) as described earlier. Briefly, cells were seeded at the density of 25,000 cells/well in 96 well plate containing 100 μL of RPMI. Molecules at different concentration was added to the media and incubated in humidified CO2 incubator. Untreated cells were taken as negative control and DMSO treated cells were taken as vehicle control. 48-hours post incubation, 10 μL of MTT (5 mg/mL) was added in each well in dark and incubated at 37° C. for the formation of formazan crystals. 4-hours post incubation, the crystals were dissolved using 100 μL isopropanol and the absorbance was read at 570 nm.

The subject of data set [2] is HIV-1NL4.3. In kind it is cell-based. Conditions: for TI (Therapeutic index = CC50/IC50) / IC50 / therapeutic index compared with MTX-HYD: CEM-GFP cells; for IC50: HIV-1NL4.3 0.5 MOI, p24 ELISA 72 h post infection; for inhibition of replication of HIV-1NL4.3: 100 nM, CEM-GFP (FIG. 9); for therapeutic index compared with MTX-HYD: HIV-1NL4.3. The protocol: Cells were then treated with molecules at different concentrations.

The subject of data set [3] is HIV-1NL4.3. On the procedure: 72-hours post infection supernatant was collected and virus production was determined by p24 antigen capture ELISA.
as §1
(§2) Cells were then treated with molecules at different concentrations. Untreated cells were taken as negative control and DMSO treated cells were taken as vehicle control.

In data set [4] the test system is different isolates of HIV-1. Kind of data set: Anti-HIV activity against different isolates of HIV-1 in CEM-GFP cells and hPBMCs, p24 ELISA. In kind it is cell-based. The protocol: as §2
For data set [5], the system named is HIV-1NL4.3. In words: microbe, parasite or virus in culture. In kind it is cell-based. Conditions: for inhibition at 10 µM: read-out: % Inhibition at 10 μM Concentration. On the procedure: TZM-bl cells were seeded at the density of 12,000-15,000 cells/well of 96 well plate with 100 μL DMEM (with 10% FBS) in each well. 12-hours post seeding, the media was replaced with fresh DMEM containing HTV-1NL4.3 at 0.1 MOI and cells were treated with different molecules independently at 10 μM working concentration. Cells were incubated in humidified CO2 incubator for 4-hours. After incubation, the media was replaced and cells were washed twice with incomplete DMEM and 100 μL of complete DMEM was added in each wells along with the molecules of interest and incubated at 37° C. in humidified CO2 incubator. 48-hours post incubation, the media was removed and cells were washed twice with 100 μL of 1×PBS. After washing, cells were lysed using cell culture lysis reagent and Steady-Glo substrate was added at 1:1 ration in each well. Luminescence was measured using Molecular Devices M5 (Table 2). % Inhibition was calculated using following formula and plotted.
[formula] (RLU=Relative Luminescence Unit)

The mark [6] stands for this setting: 10 μM, HIV-1NL4.3 0.1 MOI, TZM-bl cells, luminescence 48 h.
[7] abbreviates: Human immunodeficiency virus 1, 10 μM, HIV-1NL4.3 0.1 MOI, TZM-bl cells, luminescence 48 h.

Counter-ions that a name gives are not always drawn. Like-named read-outs stand apart in the source and are kept apart here.

For the compound `CN(Cc1cnc2nc(N)nc(N)c2n1)c1ccc(C(=O)N[C@@H](CCC(=O)N[C@@H](CCC(=O)N[C@@H](CCC(=O)N[C@@H](CCC(=O)N[C@@H](CCC(=O)N[C@@H](CCC(=O)N[C@@H](CCC(=O)O)C(=O)O)C(=O)O)C(=O)O)C(=O)O)C(=O)O)C(=O)O)C(=O)O)cc1` [MTX heptaglutamate], the CC50 in data set [1] was 39.9 ± 1 µM. Also, in data set [2], the “TI (Therapeutic index = CC50/IC50)” value was 541.87 and the IC50 was 0.0737 ± 0.00165 µM.

In data set [1], `CN(Cc1cnc2nc(N)nc(N)c2n1)c1ccc(C(=O)N[C@@H](CCC(=O)O)C(=O)O)cc1` [MTX-methyl-d3] had a CC50 of 46.4 ± 1.08 µM. The same compound yielded an IC50 in data set [2] of 0.0421 ± 0.00384 µM.

In the case of `[2H]C([2H])([2H])N(Cc1cnc2nc(N)nc(N)c2n1)c1ccc(C(=O)NC(CCC(=O)OC)C(=O)OC)cc1` (stereo not shown) [MTX-methyl-d3-Dimethyl Ester, Methotrexate-methyl-d3-Dimethyl ester], the “therapeutic index (TI) in hPBMCs” value in data set [3] (HIV-1NL4.3 0.5 MOI) is on record as “significantly high therapeutic index (TI)”. Besides, the “inhibition of HIV-1NL4.3 replication in primary cells” value in data set [3] (hPBMCs) is “with high efficiency”. In data set [2], the “inhibition of replication of HIV-1NL4.3” value is “inhibits replication of HIV-1NL4.3”, the “TI (Therapeutic index = CC50/IC50)” value came out at 4781.81 and the “therapeutic index compared with MTX-HYD” value is on record as “higher therapeutic index than MTX-HYD”. For the same compound, in data set [4] (25 nM, 0.5 MOI of different isolates), the “anti-HIV activity across virus isolates” value was “not virus isolate specific phenomena”. Moreover, the “Therapeutic Index compared with MTX-HYD, other virus isolates” value in data set [4] (HIV-1IndieC, HIV-1IIIB, HIV-1ADA, HIV-189.6) is recorded as “higher Therapeutic Index (TI) than Methotrexate Hydrate (MTX-HYD)”. For the compound `NC(Cc1cc(O)c(O)cc1O)C(=O)O` (racemic) [6-Hydroxy-DL-DOPA], in data set [5] (setting [6]), the “% Inhibition at 10 μM Concentration” value amounted to 96.67%. Consider `CC(=O)O[C@]1(C(C)=O)CC[C@H]2[C@@H]3C=C(Cl)C4=CC(=O)[C@@H]5C[C@@H]5[C@]4(C)[C@H]3CC[C@@]21C` [Cyproterone acetate], for which the inhibition at 10 µM in data set [5] (setting [7]) was 98.5%. On the same count and under the same terms, for `CC1=NN=C(c2ccc(N)cc2)c2cc3c(cc2C1)OCO3` [GYKI 52466 hydrochloride] the value was 99.3%. Turning to `[2H]C([2H])([2H])N(Cc1cnc2nc(N)nc(N)c2n1)c1ccc(C(=O)N[C@@H](CCC(=O)O)C(=O)O)cc1` [MTX-methyl-d3], in data set [2], the “inhibition of replication of HIV-1NL4.3” value was “inhibits replication of HIV-1NL4.3”. As for `N[C@@H](Cn1oc(=O)[nH]c1=O)C(=O)O` [(+)-Quisqualic acid], the “% Inhibition at 10 μM Concentration” value in data set [5] (setting [6]) is on record as 99.30%.

For the compound `COc1ccc(-c2cc3nccn3c(Nc3ncccc3C(N)=O)n2)cc1OC.Cl.O` [BAY 61-3606 hydrochloride hydrate], the “% Inhibition at 10 μM Concentration” value in data set [5] (setting [6]) was 95.05%.

In the case of `Cl.NCCCC(N)(C(=O)O)C(F)F` (racemic) [DL-alpha-Difluoromethylornithine hydrochloride], the “% Inhibition at 10 μM Concentration” value in data set [5] (setting [6]) amounted to 97.06%.

As for `Nc1nc2c(ncn2CCOCP(=O)(O)O)c(=O)[nH]1` [PMEG hydrate], the “% Inhibition at 10 μM Concentration” value in data set [5] (setting [6]) turned out to be 99.36%.

On to `O=C(Nc1cccc(C(=O)Nc2ccc(S(=O)(=O)O)c3cc(S(=O)(=O)O)cc(S(=O)(=O)O)c23)c1)Nc1cccc(C(=O)Nc2ccc(S(=O)(=O)O)c3cc(S(=O)(=O)O)cc(S(=O)(=O)O)c23)c1` [NF 023], for which the “% Inhibition at 10 μM Concentration” value in data set [5] (setting [6]) worked out at 95.77%. `CC(=O)OC[C@H]1O[C@@H]([S-])[C@H](OC(C)=O)[C@@H](OC(C)=O)[C@@H]1OC(C)=O.CCP(CC)CC.[Au+]` [Auranofin]: in data set [5] (setting [6]), the “% Inhibition at 10 μM Concentration” value worked out at 96.08%. For `CCCCNc1c(C(=O)OCC)c(C)nc2c1cnn2CC` [Tracazolate], in data set [5] (setting [7]), the inhibition at 10 µM amounted to 99.1%. For `COc1ccccc1CNCCCCCCNCCCCCCCCNCCCCCCNCc1ccccc1OC` [Methoctramine tetrahydrochloride], the “% Inhibition at 10 μM Concentration” value in data set [5] (setting [6]) was determined as 98.94%. Take `CCCCN(CC)c1nc(C)nc2c1c(C)cn2-c1c(C)cc(C)cc1C` [CP-154526 hydrochloride]: the inhibition at 10 µM in data set [5] (setting [7]) amounted to 97.1%. In the case of `COC(=O)CCC(NC(=O)c1ccc(N(C)Cc2cnc3nc(N)nc(N)c3n2)cc1)C(=O)OC` (stereo not shown) [MTX-methyl-d3-Dimethyl Ester, Methotrexate-methyl-d3-Dimethyl ester], the midpoint of cytotoxicity in data set [1], the CC50, lay at 47.3 ± 1.51 µM. Besides, in data set [2], the IC50 was determined as 0.0099 ± 0.00151 µM. Turning to `CC1=C(/C=C/C(C)=C/C=C/C(C)=C/C(=O)Nc2ccc(O)cc2)C(C)(C)CCC1` [Retinoic acid p-hydroxyanilide], the “% Inhibition at 10 μM Concentration” value in data set [5] (setting [6]) turned out to be 98.52%.

As to `CN[C@@H]1C[C@@H](c2ccc(Cl)c(Cl)c2)c2ccccc21` [Indatraline hydrochloride], the inhibition at 10 µM in data set [5] (setting [7]) is 97.4%. Turning to `Cc1ccc(S(=O)(=O)N[C@@H](Cc2ccccc2)C(=O)CCl)cc1` [N-p-Tosyl-L-phenylalanine chloromethyl ketone], in data set [5] (setting [6]), the “% Inhibition at 10 μM Concentration” value is recorded as 98.76%. Consider `CC(C)(C)c1ccc(C(O)CCCN2CCC(C(O)(c3ccccc3)c3ccccc3)CC2)cc1` (stereo not shown) [Terfenadine], for which the inhibition at 10 µM in data set [5] (setting [7]) came out at 98.7%. Consider `CCCCc1ncc(/C=C(\Cc2cccs2)C(=O)O)n1Cc1ccc(C(=O)O)cc1` [Eprosartan mesylate], for which the inhibition at 10 µM in data set [5] (setting [7]) came to 99.8%. Consider `Cc1cnc(C(=O)NCCc2ccc(S(=O)(=O)NC(=O)NC3CCCCC3)cc2)cn1` [Glipizide], for which the inhibition at 10 µM in data set [5] (setting [7]) worked out at 98.5%.

`Cn1c(=O)c(-c2c(Cl)cccc2Cl)cc2cnc(Nc3ccc(N4CCOCC4)cc3)nc21` [PD173952]: the “% Inhibition at 10 μM Concentration” value in data set [5] (setting [6]) is given as 96.16%. As for `CS(=O)(=O)c1cccc(CNc2nc(Nc3ccc4c(c3)CCC(=O)N4)ncc2C(F)(F)F)c1` [PF-573228], the “% Inhibition at 10 μM Concentration” value in data set [5] (setting [6]) is on record as 97.23%. Take `N=C(N)N/N=C/c1c(Cl)cccc1Cl` [Guanabenz acetate]: the inhibition at 10 µM in data set [5] (setting [7]) stood at 99.6%. For MTX-d3 heptaglutamate, the CC50 in data set [1] came out at 40.5 ± 3.43 µM. In data set [2], the IC50 amounted to 0.0779 ± 0.00242 µM.

Regarding `Oc1c2ccccc2c2c3c(cccc13)N=N2` [SP600125], the inhibition at 10 µM in data set [5] (setting [7]) was 97.5%. Regarding `CCCN1CCC[C@@H](c2cccc(O)c2)C1.Cl` [S(−)-3PPP hydrochloride], the “% Inhibition at 10 μM Concentration” value in data set [5] (setting [6]) came out at 98.60%.

As to `N#CC(=C(/N)Sc1ccccc1N)/C(C#N)=C(\N)Sc1ccccc1N` [U0126], the inhibition at 10 µM in data set [5] (Human immunodeficiency virus 1, TZM-bl, 48 h) is 97.4%.

Compound `COC(=O)CC[C@H](NC(=O)c1ccc(N(C)Cc2cnc3nc(N)nc(N)c3n2)cc1)C(=O)OC` [MTX Dimethyl Ester] showed a CC50 in data set [1] of 54.3 ± 3.78 µM. In data set [2], the “inhibition of replication of HIV-1NL4.3” value is given as “inhibits replication of HIV-1NL4.3”, the “TI (Therapeutic index = CC50/IC50)” value is on record as 1675.3, the “therapeutic index compared with MTX-HYD” value was “higher therapeutic index than MTX-HYD” and the IC50 stood at 0.0324 ± 0.00087 µM.
